In brackets after ≈: the same amount, converted by molar mass.
Assays:
[1] = system: Escherichia coli (E. coli) BAS849; test: Antibacterial activity, microbroth dilution MIC (Table 1); format: cell-based; details: microbroth dilution, super sensitive Gram-negative E. coli BAS849, read-out: MIC, BAS849
Procedure, shortened: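 Each strain is exposed to test compound in a microbroth dilution series; visible growth is scored macroscopically, and the lowest growth-free concentration is recorded as MIC in μg/mL.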

[2] = system: Staphylococcus aureus (S. aureus) 29213; test: as above; format: cell-based; details: microbroth dilution, Gram-positive S. aureus 29213, read-out: MIC, 29213
Procedure, shortened: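 Lowest concentration stopping macroscopically visible growth under test conditions, by broth microdilution, defines the MIC (μg/mL).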

[3] = system: E. coli 25922; test: as above; format: cell-based, Escherichia coli; details: Escherichia coli; microbroth dilution; control Gram-negative E. coli 25922 strain; read-out: MIC, 25922
Procedure, shortened: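 Broth microdilution against S. aureus 29213, E. coli 25922 and hypersensitive E. coli BAS849. MIC in μg/mL is the lowest drug concentration preventing macroscopically visible growth under test conditions.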

[4] = system: E. coli LZ3111; test: Antibacterial activity, MIC, quinolone resistant strain (Table 2); format: cell-based; details: Escherichia coli, LZ3111, read-out: MIC LZ3111
Procedure, shortened: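 Microbroth dilution method; MIC (μg/mL) is the lowest drug concentration preventing macroscopically visible growth under test conditions.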

[5] = system: Acinetobacter baumannii (A. baumannii) BAA747; test: Antibacterial activity, MIC (Table 4); format: cell-based; details: A. baumannii BAA747, read-out: MIC, BAA747
Excerpt: (§1) The antibacterial activity from a microbroth dilution method may be presented as the minimum inhibitory concentration (MIC in μg/mL). The MIC value is the lowest concentration of drug which prevents macroscopically visible growth under test conditions.
(§2) Antibacterial activity of test compounds against the Gram-negative Acinetobacter baumannii (A. baumannii) BAA747 and Klebsiella pneumoniae (K. pneumoniae) 35657 bacterium and the resistant A. baumannii MXX2240 and K. pneumoniae MXX1232 strains are shown in Table 4. The MMX strains are multi-drug resistant clinical isolates.

[6] = system: Klebsiella pneumoniae (K. pneumoniae) 35657; test: Antibacterial activity, MIC (Table 4); format: cell-based; details: K. pneumoniae 35657, read-out: MIC, 35657
Excerpt: as §1, §2

[7] = system: Pseudomonas aeruginosa (P. aeruginosa) 27853; test: Antibacterial activity, MIC (Table 5); format: cell-based; details: P. aeruginosa 27853, read-out: MIC, 27853
Excerpt: as §1
Antibacterial activity of test compounds against the Gram-negative bacterium Pseudomonas aeruginosa (P. aeruginosa) 27853 is shown in Table 5.

[8] = system: K. pneumoniae MXX1232; test: Antibacterial activity, MIC, resistant strain (Table 4); format: cell-based; details: Klebsiella pneumoniae, MXX1232; resistant K. pneumoniae MMX1232, multi-drug resistant clinical isolate; read-out: MIC, MMX1232
Excerpt: as §1, §2

Structure (SMILES)	MIC [1] [µg/mL]	MIC [2] [µg/mL]	MIC [3] [µg/mL]	MIC [4] [µg/mL]	MIC [5] [µg/mL]	MIC [6] [µg/mL]	MIC [7] [µg/mL]	MIC [8] [µg/mL]
CCc1cc(C(=O)O)c(=O)[nH]c1-c1ccc2c(c1)cc1n2CCC1N1CCOCC1 (centres unmarked) [Cpd 155, 5-ethyl-6-(1-morpholino-2,3-dihydro-1H-pyrrolo[1,2-a]indol-7-yl)-2-oxo-1,2-dihydropyridine-3-carboxylic acid]	< 1	12.5 to 150 (≈ 30.7 to 368 µM)	3.5 to 12.5 (≈ 8.59 to 30.7 µM)	12.5 to 150 (≈ 30.7 to 368 µM)	12.5 to 150 (≈ 30.7 to 368 µM)	3.5 to 12.5 (≈ 8.59 to 30.7 µM)	12.5 to 150 (≈ 30.7 to 368 µM)	
CCc1c(-c2ccc3c(c2)cc(CN2CCC(O)CC2)n3C)[nH]c(=O)c(C(=O)O)c1O [Cpd 254, 5-ethyl-4-hydroxy-6-(2-((4-hydroxypiperidin-1-yl)methyl)-1-methyl-1H-indol-5-yl)-2-oxo-1,2-dihydropyridine-3-carboxylic acid]	< 1	3.5 to 12.5 (≈ 8.23 to 29.4 µM)	1 to 3.5 (≈ 2.35 to 8.23 µM)	12.5 to 150 (≈ 29.4 to 353 µM)		3.5 to 12.5 (≈ 8.23 to 29.4 µM)		12.5 to 150 (≈ 29.4 to 353 µM)
CCc1c(-c2ccc3c(c2)cc(C2CCNC2)n3C)[nH]c(=O)c(C(=O)O)c1O (centres unmarked) [Cpd 306, 5-ethyl-4-hydroxy-6-(1-methyl-2-(pyrrolidin-3-yl)-1H-indol-5-yl)-2-oxo-1,2-dihydropyridine-3-carboxylic acid]	1 to 3.5 (≈ 2.62 to 9.18 µM)	12.5 to 150 (≈ 32.8 to 393 µM)	3.5 to 12.5 (≈ 9.18 to 32.8 µM)	3.5 to 12.5 (≈ 9.18 to 32.8 µM)	12.5 to 150 (≈ 32.8 to 393 µM)	3.5 to 12.5 (≈ 9.18 to 32.8 µM)	12.5 to 150 (≈ 32.8 to 393 µM)	
CCc1cc(C(=O)O)c(=O)[nH]c1-c1ccc2c(c1)cc(CN1CCC(O)C1)n2C (centres unmarked) [Cpd 125, 5-ethyl-6-(2-((3-hydroxypyrrolidin-1-yl)methyl)-1-methyl-1H-indol-5-yl)-2-oxo-1,2-dihydropyridine-3-carboxylic acid]	< 1	12.5 to 150 (≈ 31.6 to 379 µM)	1 to 3.5 (≈ 2.53 to 8.85 µM)	12.5 to 150 (≈ 31.6 to 379 µM)	12.5 to 150 (≈ 31.6 to 379 µM)	< 1	12.5 to 150 (≈ 31.6 to 379 µM)	
CCc1cc(C(=O)O)c(=O)[nH]c1-c1ccc2c(c1)cc(CN1CCCC1c1ccccc1)n2C (centres unmarked) [Cpd 131, 5-ethyl-6-(1-methyl-2-((2-phenylpyrrolidin-1-yl)methyl)-1H-indol-5-yl)-2-oxo-1,2-dihydropyridine-3-carboxylic acid]	< 1	1 to 3.5 (≈ 2.2 to 7.68 µM)	1 to 3.5 (≈ 2.2 to 7.68 µM)	12.5 to 150 (≈ 27.4 to 329 µM)	3.5 to 12.5 (≈ 7.68 to 27.4 µM)	12.5 to 150 (≈ 27.4 to 329 µM)	12.5 to 150 (≈ 27.4 to 329 µM)	
CCc1cc(C(=O)O)c(=O)[nH]c1-c1ccc2c(c1)cc(CCN1CCOCC1)n2C [Cpd 162, 5-ethyl-6-(1-methyl-2-(2-morpholinoethyl)-1H-indol-5-yl)-2-oxo-1,2-dihydropyridine-3-carboxylic acid]	< 1	12.5 to 150 (≈ 30.5 to 366 µM)	1 to 3.5 (≈ 2.44 to 8.55 µM)	12.5 to 150 (≈ 30.5 to 366 µM)	3.5 to 12.5 (≈ 8.55 to 30.5 µM)	1 to 3.5 (≈ 2.44 to 8.55 µM)	12.5 to 150 (≈ 30.5 to 366 µM)	
CCc1cc(C(=O)O)c(=O)[nH]c1-c1ccc2c(c1)cc(CN[C@@H](CC)c1ccccc1)n2C [Cpd 119, (S)-5-ethyl-6-(1-methyl-2-((1-phenylpropylamino)methyl)-1H-indol-5-yl)-2-oxo-1,2-dihydropyridine-3-carboxylic acid]	< 1	3.5 to 12.5 (≈ 7.89 to 28.2 µM)	1 to 3.5 (≈ 2.25 to 7.89 µM)	12.5 to 150 (≈ 28.2 to 338 µM)				
CCc1c(-c2ccc3c(c2)cc(CN2CC(N(C)Cc4ccccc4)C2)n3C)[nH]c(=O)c(C(=O)O)c1O [Cpd 206, 6-(2-((3-(benzyl(methyl)amino)azetidin-1-yl)methyl)-1-methyl-1H-indol-5-yl)-5-ethyl-4-hydroxy-2-oxo-1,2-dihydropyridine-3-carboxylic acid]	< 1	3.5 to 12.5 (≈ 6.99 to 25 µM)	3.5 to 12.5 (≈ 6.99 to 25 µM)	12.5 to 150 (≈ 25 to 300 µM)				
CCc1c(-c2ccc3c(c2)cc(CN2CCCC2)n3C)[nH]c(=O)c(C(=O)O)c1C(=O)O [Cpd 110, 5-ethyl-6-(1-methyl-2-(pyrrolidin-1-ylmethyl)-1H-indol-5-yl)-2-oxo-1,2-dihydropyridine-3,4-dicarboxylic acid]	12.5 to 150 (≈ 29.5 to 354 µM)	12.5 to 150 (≈ 29.5 to 354 µM)	12.5 to 150 (≈ 29.5 to 354 µM)	12.5 to 150 (≈ 29.5 to 354 µM)				
CCc1cc(C(=O)O)c(=O)[nH]c1-c1cc2cc(CN(C)C)n(C)c2cc1C [Cpd 96, 6-(2-((dimethylamino)methyl)-1,6-dimethyl-1H-indol-5-yl)-5-ethyl-2-oxo-1,2-dihydropyridine-3-carboxylic acid]	12.5 to 150 (≈ 34 to 408 µM)	12.5 to 150 (≈ 34 to 408 µM)	12.5 to 150 (≈ 34 to 408 µM)	12.5 to 150 (≈ 34 to 408 µM)				
CCc1c(-c2ccc3c(c2)cc(CN(C)C2CC2)n3C)[nH]c(=O)c(C(=O)O)c1O.Cl [Cpd 212, 6-(2-((cyclopropyl(methyl)amino)methyl)-1-methyl-1H-indol-5-yl)-5-ethyl-4-hydroxy-2-oxo-1,2-dihydropyridine-3-carboxylic acid hydrochloride]	< 1	1 to 3.5	1 to 3.5	12.5 to 150				
CCc1cc(C(=O)O)c(=O)[nH]c1-c1ccc2c(cc(CN3CCCC3)n2C)c1F [Cpd 158, 5-ethyl-6-(4-fluoro-1-methyl-2-(pyrrolidin-1-ylmethyl)-1H-indol-5-yl)-2-oxo-1,2-dihydropyridine-3-carboxylic acid]	< 1	12.5 to 150 (≈ 31.5 to 377 µM)	1 to 3.5 (≈ 2.52 to 8.81 µM)	12.5 to 150 (≈ 31.5 to 377 µM)				
CCc1cc(C(=O)O)c(=O)[nH]c1-c1ccc2c(c1)cc(CN)n2C [Cpd 150, 6-(2-(aminomethyl)-1-methyl-1H-indol-5-yl)-5-ethyl-2-oxo-1,2-dihydropyridine-3-carboxylic acid]	< 1	12.5 to 150 (≈ 38.4 to 461 µM)	1 to 3.5 (≈ 3.07 to 10.8 µM)	12.5 to 150 (≈ 38.4 to 461 µM)				
CCc1cc(C(=O)O)c(=O)[nH]c1-c1ccc2c(c1)cc(CN1Cc3cccnc3C1)n2C [Cpd 135, 6-(2-((5H-pyrrolo[3,4-b]pyridin-6(7H)-yl)methyl)-1-methyl-1H-indol-5-yl)-5-ethyl-2-oxo-1,2-dihydropyridine-3-carboxylic acid]	< 1	12.5 to 150 (≈ 29.2 to 350 µM)	3.5 to 12.5 (≈ 8.17 to 29.2 µM)	12.5 to 150 (≈ 29.2 to 350 µM)				
CCc1c(-c2ccc3c(c2)c(C#N)cn3C)[nH]c(=O)c(C(=O)O)c1O [Cpd 359, 6-(3-cyano-1-methyl-1H-indol-5-yl)-5-ethyl-4-hydroxy-2-oxo-1,2-dihydropyridine-3-carboxylic acid]	3.5 to 12.5 (≈ 10.4 to 37.1 µM)	12.5 to 150 (≈ 37.1 to 445 µM)	12.5 to 150 (≈ 37.1 to 445 µM)	1 to 3.5 (≈ 2.96 to 10.4 µM)				
CCc1cc(C(=O)O)c(=O)[nH]c1-c1ccc2c(c1)cc(CNCc1ccccn1)n2C [Cpd 120, 5-ethyl-6-(1-methyl-2-((pyridin-2-ylmethylamino)methyl)-1H-indol-5-yl)-2-oxo-1,2-dihydropyridine-3-carboxylic acid]	< 1	3.5 to 12.5 (≈ 8.4 to 30 µM)	< 1	12.5 to 150 (≈ 30 to 360 µM)				
CCc1c(-c2ccc3c(c2)cc(CNC(C)(C)c2ccccc2)n3C)[nH]c(=O)c(C(=O)O)c1O.Cl [Cpd 217, 5-ethyl-4-hydroxy-6-(1-methyl-2-((2-phenylpropan-2-ylamino)methyl)-1H-indol-5-yl)-2-oxo-1,2-dihydropyridine-3-carboxylic acid hydrochloride]	< 1	1 to 3.5	1 to 3.5	12.5 to 150				
CCc1c(-c2ccc3c(c2)cc(CNc2ccccc2)n3C)[nH]c(=O)c(C(=O)O)c1O [Cpd 213, 5-ethyl-4-hydroxy-6-(1-methyl-2-((phenylamino)methyl)-1H-indol-5-yl)-2-oxo-1,2-dihydropyridine-3-carboxylic acid]	< 1	1 to 3.5 (≈ 2.4 to 8.38 µM)	12.5 to 150 (≈ 29.9 to 359 µM)	12.5 to 150 (≈ 29.9 to 359 µM)				

Source: patent US9409905B2, “Antibacterial compounds and methods for use” (PTC THERAPEUTICS, INC., priority 2011, dated 2016)
